# Starred links: 1 amine or outer side, 2 acyl side, 3 side chain; linkers in the order of their positions; H or OH if unused. Positions of bridges follow the written chain, without caps; N, C: chain ends. Non-standard residues stand in square brackets, D forms with d. Residues, ends and D or L forms follow the SMILES beside them. Groups on a side chain read outwards from the residue. *: point of attachment. Trp(1-CH2CO2Me) = COC(=O)Cn1cc(C[C@H](N)C(=O)O)c2ccccc21; Trp(1-CH2COOH) = N[C@@H](Cc1cn(CC(=O)O)c2ccccc12)C(=O)O; Benzofuran(2-CO) = O=C(c1cc2ccccc2o1)*; X67 = S=C(Nc1c(Cl)c(Cl)cc(Cl)c1Cl)*; X75 = S=C(Nc1ccc(C2CC2)c2ccccc12)*; X50 = COc1cc(NC(=S)*)ccc1-c1cnco1; Hyp = O=C(O)[C@@H]1C[C@@H](O)CN1; X14 = Cc1c[nH]c2c(NC(=S)*)cccc12; X53 = Cc1nc(-c2cccnc2)sc1C(=O)*; X80 = S=C(Nc1ccc(-n2cccn2)cc1)*; X28 = Cc1ccc(Cl)c(NC(=S)*)c1Cl; X43 = S=C(Nc1ccccc1Oc1ccccc1)*; NMeNle = CCCC[C@H](NC)C(=O)O; X4 = S=C(Nc1ccc2c(c1)OCCO2)*; X6 = CCCCCCCOc1ccc(N*)cc1; NMeA = CN[C@@H](C)C(=O)O; Dab = NCC[C@H](N)C(=O)O; X76 = Fc1cc(N*)cc(F)c1F; Dap = NC[C@H](N)C(=O)O; CO = O=C([*:1])[*:2]
# Biological target: T1, PD-1/PD-L1 (Homo sapiens, UniProt Q9NZQ7)
# T1 construct: TVMV protease site linker (C); made in house; host or cells: HEK293T cells
# Assay: PD-1/PD-L1 Homogenous Time-Resolved Fluorescence (HTRF) binding assay
# Conditions: PD-L1-His 10 nM pre-incubated with inhibitor, PD-1-Ig 20 nM; read-out: HTRF IC50
# Outline: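 Compounds preincubated 15 min with PD-L1-His (10 nM final), then PD-1-Ig (20 nM final) added for 15 min in dPBS with 0.1% BSA, 0.05% Tween-20. Detection by Eu-cryptate anti-Ig (1 nM) and APC anti-His (20 nM) HTRF.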
# T1 sequence (Q9NZQ7 18-239): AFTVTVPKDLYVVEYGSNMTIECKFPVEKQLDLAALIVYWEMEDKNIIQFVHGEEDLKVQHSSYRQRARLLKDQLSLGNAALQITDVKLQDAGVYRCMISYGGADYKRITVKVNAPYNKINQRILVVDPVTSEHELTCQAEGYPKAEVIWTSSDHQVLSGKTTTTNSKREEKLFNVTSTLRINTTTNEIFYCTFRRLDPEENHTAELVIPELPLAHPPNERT
row,IC50,Compound
1,2.4 nM,CCCC[C@H]1C(=O)N(C)[C@@H](CCCC)C(=O)N[C@@H](CC(C)C)C(=O)N[C@H](C(=O)NCC(N)=O)CSCC(=O)N[C@@H](Cc2ccc(O)cc2)C(=O)N(C)[C@@H](C)C(=O)N[C@@H](CC(N)=O)C(=O)N2CCC[C@H]2C(=O)N[C@@H](CNC(=S)Nc2c(Cl)c(Cl)cc(Cl)c2Cl)C(=O)N[C@@H](CC(C)C)C(=O)N2C[C@H](O)C[C@H]2C(=O)N[C@@H](Cc2c[nH]c3ccccc23)C(=O)N[C@@H](CCNC(=S)Nc2c(Cl)c(Cl)cc(Cl)c2Cl)C(=O)N[C@@H](Cc2cn(CC(=O)O)c3ccccc23)C(=O)N1C [Example 1134] ({CH2CO}-Y[NMeA]NP[Dap](X67)L[Hyp]W[Dab](X67)[Trp(1-CH2COOH)][NMeNle][NMeNle]LCG-NH2; thioether N-14)
2,4.9 nM,CCCC[C@H]1C(=O)N(C)[C@@H](CCCC)C(=O)N[C@@H](CC(C)C)C(=O)N[C@H](C(=O)NCC(N)=O)CSCC(=O)N[C@@H](Cc2ccc(O)cc2)C(=O)N(C)[C@@H](C)C(=O)N[C@@H](CC(N)=O)C(=O)N2CCC[C@H]2C(=O)N[C@@H](CNC(=S)Nc2ccccc2Oc2ccccc2)C(=O)N[C@@H](CC(C)C)C(=O)N2C[C@H](O)C[C@H]2C(=O)N[C@@H](Cc2c[nH]c3ccccc23)C(=O)N[C@@H](CCN)C(=O)N[C@@H](Cc2cn(CC(=O)O)c3ccccc23)C(=O)N1C [Example 1135] ({CH2CO}-Y[NMeA]NP[Dap](X43)L[Hyp]W[Dab][Trp(1-CH2COOH)][NMeNle][NMeNle]LCG-NH2; thioether N-14)
3,13 nM,CCCC[C@H]1C(=O)N(C)[C@@H](CCCC)C(=O)N[C@@H](CC(C)C)C(=O)N[C@H](C(=O)NCC(N)=O)CSCC(=O)N[C@@H](Cc2ccc(O)cc2)C(=O)N(C)[C@@H](C)C(=O)N[C@@H](CC(N)=O)C(=O)N2CCC[C@H]2C(=O)N[C@@H](CNC(=S)Nc2ccc(C3CC3)c3ccccc23)C(=O)N[C@@H](CC(C)C)C(=O)N2C[C@H](O)C[C@H]2C(=O)N[C@@H](Cc2c[nH]c3ccccc23)C(=O)N[C@@H](CCNC(=S)Nc2ccc(C3CC3)c3ccccc23)C(=O)N[C@@H](Cc2cn(CC(=O)O)c3ccccc23)C(=O)N1C [Example 3058] ({CH2CO}-Y[NMeA]NP[Dap](X75)L[Hyp]W[Dab](X75)[Trp(1-CH2COOH)][NMeNle][NMeNle]LCG-NH2; thioether N-14)
4,3.1 nM,CCCC[C@H]1C(=O)N(C)[C@@H](CCCC)C(=O)N[C@@H](CC(C)C)C(=O)N[C@H](C(=O)NCC(N)=O)CSCC(=O)N[C@@H](Cc2ccc(O)cc2)C(=O)N(C)[C@@H](C)C(=O)N[C@@H](CC(N)=O)C(=O)N2CCC[C@H]2C(=O)N[C@@H](CNC(=S)Nc2ccc(-c3cnco3)c(OC)c2)C(=O)N[C@@H](CC(C)C)C(=O)N2C[C@H](O)C[C@H]2C(=O)N[C@@H](Cc2c[nH]c3ccccc23)C(=O)N[C@@H](CCNC(=S)Nc2ccc(-c3cnco3)c(OC)c2)C(=O)N[C@@H](Cc2cn(CC(=O)O)c3ccccc23)C(=O)N1C [Example 1029] ({CH2CO}-Y[NMeA]NP[Dap](X50)L[Hyp]W[Dab](X50)[Trp(1-CH2COOH)][NMeNle][NMeNle]LCG-NH2; thioether N-14)
5,4.8 nM,CCCC[C@H]1C(=O)N(C)[C@@H](CCCC)C(=O)N[C@@H](CC(C)C)C(=O)N[C@H](C(=O)NCC(N)=O)CSCC(=O)N[C@@H](Cc2ccc(O)cc2)C(=O)N(C)[C@@H](C)C(=O)N[C@@H](CC(N)=O)C(=O)N2CCC[C@H]2C(=O)N[C@@H](CNC(=O)Nc2cc(F)c(F)c(F)c2)C(=O)N[C@@H](CC(C)C)C(=O)N2C[C@H](O)C[C@H]2C(=O)N[C@@H](Cc2c[nH]c3ccccc23)C(=O)N[C@@H](CCNC(=O)Nc2cc(F)c(F)c(F)c2)C(=O)N[C@@H](Cc2cn(CC(=O)O)c3ccccc23)C(=O)N1C [Example 1012] ({CH2CO}-Y[NMeA]NP[Dap]([CO-X76])L[Hyp]W[Dab]([CO-X76])[Trp(1-CH2COOH)][NMeNle][NMeNle]LCG-NH2; thioether N-14)
6,5 nM,CCCC[C@H]1C(=O)N(C)[C@@H](CCCC)C(=O)N[C@@H](CC(C)C)C(=O)N[C@H](C(=O)NCC(N)=O)CSCC(=O)N[C@@H](Cc2ccc(O)cc2)C(=O)N(C)[C@@H](C)C(=O)N[C@@H](CC(N)=O)C(=O)N2CCC[C@H]2C(=O)N[C@@H](CNC(=S)Nc2ccc3c(c2)OCCO3)C(=O)N[C@@H](CC(C)C)C(=O)N2C[C@H](O)C[C@H]2C(=O)N[C@@H](Cc2c[nH]c3ccccc23)C(=O)N[C@@H](CCN)C(=O)N[C@@H](Cc2cn(CC(=O)O)c3ccccc23)C(=O)N1C [Example 3073] ({CH2CO}-Y[NMeA]NP[Dap](X4)L[Hyp]W[Dab][Trp(1-CH2COOH)][NMeNle][NMeNle]LCG-NH2; thioether N-14)
7,1.1 nM,CCCC[C@H]1C(=O)N(C)[C@@H](CCCC)C(=O)N[C@@H](CC(C)C)C(=O)N[C@H](C(=O)NCC(N)=O)CSCC(=O)N[C@@H](Cc2ccc(O)cc2)C(=O)N(C)[C@@H](C)C(=O)N[C@@H](CC(N)=O)C(=O)N2CCC[C@H]2C(=O)N[C@@H](CNC(=S)Nc2ccc(-n3cccn3)cc2)C(=O)N[C@@H](CC(C)C)C(=O)N2C[C@H](O)C[C@H]2C(=O)N[C@@H](Cc2c[nH]c3ccccc23)C(=O)N[C@@H](CCN)C(=O)N[C@@H](Cc2cn(CC(=O)O)c3ccccc23)C(=O)N1C [Example 1060] ({CH2CO}-Y[NMeA]NP[Dap](X80)L[Hyp]W[Dab][Trp(1-CH2COOH)][NMeNle][NMeNle]LCG-NH2; thioether N-14)
8,2.9 nM,CCCC[C@H]1C(=O)N(C)[C@@H](CCCC)C(=O)N[C@@H](CC(C)C)C(=O)N[C@H](C(=O)NCC(N)=O)CSCC(=O)N[C@@H](Cc2ccc(O)cc2)C(=O)N(C)[C@@H](C)C(=O)N[C@@H](CC(N)=O)C(=O)N2CCC[C@H]2C(=O)N[C@@H](CNC(=S)Nc2cccc3c(C)c[nH]c23)C(=O)N[C@@H](CC(C)C)C(=O)N2C[C@H](O)C[C@H]2C(=O)N[C@@H](Cc2c[nH]c3ccccc23)C(=O)N[C@@H](CCNC(=S)Nc2cccc3c(C)c[nH]c23)C(=O)N[C@@H](Cc2cn(CC(=O)O)c3ccccc23)C(=O)N1C [Example 3025] ({CH2CO}-Y[NMeA]NP[Dap](X14)L[Hyp]W[Dab](X14)[Trp(1-CH2COOH)][NMeNle][NMeNle]LCG-NH2; thioether N-14)
9,5.3 nM,CCCC[C@H]1C(=O)N(C)[C@@H](CCCC)C(=O)N[C@@H](CC(C)C)C(=O)N[C@H](C(=O)NCC(N)=O)CSCC(=O)N[C@@H](Cc2ccc(O)cc2)C(=O)N(C)[C@@H](C)C(=O)N[C@@H](CC(N)=O)C(=O)N2CCC[C@H]2C(=O)N[C@@H](CNC(=O)c2cc3ccccc3o2)C(=O)N[C@@H](CC(C)C)C(=O)N2C[C@H](O)C[C@H]2C(=O)N[C@@H](Cc2c[nH]c3ccccc23)C(=O)N[C@@H](CCNC(=O)c2cc3ccccc3o2)C(=O)N[C@@H](Cc2cn(CC(=O)OC)c3ccccc23)C(=O)N1C [Example 3012] ({CH2CO}-Y[NMeA]NP[Dap](Benzofuran(2-CO))L[Hyp]W[Dab](Benzofuran(2-CO))[Trp(1-CH2CO2Me)][NMeNle][NMeNle]LCG-NH2; thioether N-14)
10,7.6 nM,CCCC[C@H]1C(=O)N(C)[C@@H](CCCC)C(=O)N[C@@H](CC(C)C)C(=O)N[C@H](C(=O)NCC(N)=O)CSCC(=O)N[C@@H](Cc2ccc(O)cc2)C(=O)N(C)[C@@H](C)C(=O)N[C@@H](CC(N)=O)C(=O)N2CCC[C@H]2C(=O)N[C@@H](CNC(=O)c2sc(-c3cccnc3)nc2C)C(=O)N[C@@H](CC(C)C)C(=O)N2C[C@H](O)C[C@H]2C(=O)N[C@@H](Cc2c[nH]c3ccccc23)C(=O)N[C@@H](CCNC(=O)c2sc(-c3cccnc3)nc2C)C(=O)N[C@@H](Cc2cn(CC(=O)OC)c3ccccc23)C(=O)N1C [Example 1008] ({CH2CO}-Y[NMeA]NP[Dap](X53)L[Hyp]W[Dab](X53)[Trp(1-CH2CO2Me)][NMeNle][NMeNle]LCG-NH2; thioether N-14)
11,9.3 nM,CCCC[C@H]1C(=O)N(C)[C@@H](CCCC)C(=O)N[C@@H](CC(C)C)C(=O)N[C@H](C(=O)NCC(N)=O)CSCC(=O)N[C@@H](Cc2ccc(O)cc2)C(=O)N(C)[C@@H](C)C(=O)N[C@@H](CC(N)=O)C(=O)N2CCC[C@H]2C(=O)N[C@@H](CNC(=S)Nc2c(Cl)ccc(C)c2Cl)C(=O)N[C@@H](CC(C)C)C(=O)N2C[C@H](O)C[C@H]2C(=O)N[C@@H](Cc2c[nH]c3ccccc23)C(=O)N[C@@H](CCNC(=S)Nc2c(Cl)ccc(C)c2Cl)C(=O)N[C@@H](Cc2cn(CC(=O)O)c3ccccc23)C(=O)N1C [Example 1113] ({CH2CO}-Y[NMeA]NP[Dap](X28)L[Hyp]W[Dab](X28)[Trp(1-CH2COOH)][NMeNle][NMeNle]LCG-NH2; thioether N-14)

row,Compound,IC50
1,CCCCCCCOc1ccc(NC(=O)NC[C@@H]2NC(=O)[C@@H]3CCCN3C(=O)[C@H](CC(N)=O)NC(=O)[C@H](C)N(C)C(=O)[C@H](Cc3ccc(O)cc3)NC(=O)CSC[C@@H](C(=O)NCC(N)=O)NC(=O)[C@H](CC(C)C)NC(=O)[C@H](CCCC)N(C)C(=O)[C@H](CCCC)N(C)C(=O)[C@H](Cc3cn(CC(=O)O)c4ccccc34)NC(=O)[C@H](CCN)NC(=O)[C@H](Cc3c[nH]c4ccccc34)NC(=O)[C@@H]3C[C@@H](O)CN3C(=O)[C@H](CC(C)C)NC2=O)cc1 [Example 1089] ({CH2CO}-Y[NMeA]NP[Dap]([CO-X6])L[Hyp]W[Dab][Trp(1-CH2COOH)][NMeNle][NMeNle]LCG-NH2; thioether N-14),12 nM
2,CCCCCCCOc1ccc(NC(=O)NC[C@@H]2NC(=O)[C@@H]3CCCN3C(=O)[C@H](CC(N)=O)NC(=O)[C@H](C)N(C)C(=O)[C@H](Cc3ccc(O)cc3)NC(=O)CSC[C@@H](C(=O)NCC(N)=O)NC(=O)[C@H](CC(C)C)NC(=O)[C@H](CCCC)N(C)C(=O)[C@H](CCCC)N(C)C(=O)[C@H](Cc3cn(CC(=O)O)c4ccccc34)NC(=O)[C@H](CCN)NC(=O)[C@H](Cc3c[nH]c4ccccc34)NC(=O)[C@@H]3C[C@@H](O)CN3C(=O)[C@H](CC(C)C)NC2=O)cc1 [Example 1099] ({CH2CO}-Y[NMeA]NP[Dap]([CO-X6])L[Hyp]W[Dab][Trp(1-CH2COOH)][NMeNle][NMeNle]LCG-NH2; thioether N-14),2.6 nM

# Source: patent US20220389061A1, “IMMUNOMODULATORS” (priority 2019, published 2022)
